# According to paper PMC11013491, “Triterpenoids from the Leaves of Diospyros digyna and Their PTP1B Inhibitory Activity” (Molecules, 2024):
# Target: T1, PTP1B (Homo sapiens, UniProt P18031)
# T1 construct: purchased Abcam, Cambridge, UK
# T1 sequence (P18031 1-435): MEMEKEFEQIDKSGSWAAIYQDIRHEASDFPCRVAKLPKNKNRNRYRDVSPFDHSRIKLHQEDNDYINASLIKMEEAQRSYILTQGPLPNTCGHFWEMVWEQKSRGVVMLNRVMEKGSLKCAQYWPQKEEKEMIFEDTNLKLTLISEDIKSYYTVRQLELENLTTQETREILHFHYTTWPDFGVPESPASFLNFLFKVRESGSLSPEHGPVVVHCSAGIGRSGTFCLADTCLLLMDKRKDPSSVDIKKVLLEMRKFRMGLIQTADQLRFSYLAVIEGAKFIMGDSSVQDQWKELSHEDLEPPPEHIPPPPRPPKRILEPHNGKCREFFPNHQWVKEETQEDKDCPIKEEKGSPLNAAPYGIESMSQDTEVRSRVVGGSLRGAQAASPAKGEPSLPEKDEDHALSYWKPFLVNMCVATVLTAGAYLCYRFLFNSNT
# Test: PTP1B inhibition assay (pNPP substrate)
# Type: biochemical
# Conditions: human recombinant PTP1B, 37 °C, 30 min, triplicate, means ± SD, read-out: PTP1B inhibitory activity IC50
# Description: The inhibitory activity of the isolated compounds against PTP1B (Abcam, Cambridge, UK, human recombinant) was assayed according to the method reported previously. The reagent p-nitrophenyl phosphate (pNPP) was used as the substrate, and oleanolic acid was used as the positive control. In brief, a 100 μL assay mixture containing 1 μg/mL PTP1B, samples, 4 mM pNPP, 55 mM NaCl, 2.2 mM DTT, 1.1 mM EDTA, and […] in 11 mM Tris-HCl, pH 7.5, was incubated at 37 °C for 30 min in a 96-well plate. The absorbance of 405 nm was measured by a microplate reader. Data were analyzed by GraphPad Prism v.10.2.0 software. All data were obtained in triplicate and presented as means ± SD.
row,IC50,SMILES
1,16.2 ± 0.57 µM,"COc1cc(/C=C\C(=O)O[C@H]2[C@H](O)C[C@]3(C)[C@H]4CC=C5[C@@H]6[C@@H](C)[C@H](C)CC[C@]6(C(=O)O)CC[C@@]5(C)[C@]4(C)CC[C@H]3C2(C)C)ccc1O [Compound 12, 3β-O-cis-feruloyl-2α-hydroxy-urs-12-en-28-oic acid]"
2,10.3 ± 1.21 µM,"COc1cc(/C=C/C(=O)O[C@H]2[C@H](O)C[C@]3(C)[C@H]4CC=C5[C@@H]6[C@@H](C)[C@H](C)CC[C@]6(C(=O)O)CC[C@@]5(C)[C@]4(C)CC[C@H]3C2(C)C)ccc1O [Compound 13, 3β-O-trans-feruloyl-2α-hydroxy-urs-12-en-28-oic acid]"
3,26.2 ± 1.31 µM,"C[C@H]1[C@H](C)CC[C@]2(C(=O)O)CC[C@]3(C)C(=CC[C@@H]4[C@@]5(C)C[C@@H](O)[C@H](OC(=O)/C=C/c6ccc(O)cc6)C(C)(C)[C@@H]5CC[C@]43C)[C@H]12 [Compound 11, jacoumaric acid]"
4,19.2 ± 0.22 µM,"C[C@H]1[C@H](C)CC[C@]2(C(=O)O)CC[C@]3(C)C(=CC[C@@H]4[C@@]5(C)C[C@@H](O)[C@H](OC(=O)/C=C\c6ccc(O)cc6)C(C)(C)[C@@H]5CC[C@]43C)[C@H]12 [Compound 10, 3β-O-cis-p-coumaroyl-2α-hydroxy-urs-12-en-28-oic acid]"
5,23.7 ± 0.73 µM,"C=C1CCC2(C(=O)O)CCC3(C)C(=CCC4C5(C)CC(O)C(OC(=O)C=Cc6ccc(O)c(OC)c6)C(C)(C)C5CCC43C)C2C1C (stereo not drawn) [Compound 5, 3β-trans-feruloyloxy-2α-hydroxy-12,20(30)-ursadien-28-oic acid]"
6,34 ± 4.88 µM,"C=C1CC[C@]2(C(=O)O)CC[C@]3(C)C(=CC[C@@H]4[C@@]5(C)C[C@@H](O)[C@@H](OC(=O)/C=C/c6ccc(O)c(OC)c6)C(C)(C)[C@@H]5CC[C@]43C)[C@@H]2[C@H]1C [Compound 6, 3α-trans-feruloyloxy-2α-hydroxy-12,20(30)-ursadien-28-oic acid]"
7,48.7 ± 5.17 µM,"C=C1CCC2(C(=O)O)CCC3(C)C(=CCC4C5(C)CC(O)C(OC(=O)C=Cc6ccc(O)cc6)C(C)(C)C5CCC43C)C2C1C (stereo not drawn) [Compound 4, 3β-trans-p-coumaroyloxy-2α-hydroxy-12,20(30)-ursadien-28-oic acid]"
8,17.1 ± 1.67 µM,"C=C1CC[C@]2(C(=O)O)CC[C@]3(C)C(=CC[C@@H]4[C@@]5(C)C[C@@H](O)[C@@H](OC(=O)/C=C/c6ccc(O)cc6)C(C)(C)[C@@H]5CC[C@]43C)[C@@H]2[C@H]1C [Compound 15, 3α-trans-coumaroyloxy-2α-hydroxy-12,20(30)-dien-28-ursolic acid]"
